Measurements from patent US20210139467A1 (GLAXOSMITHKLINE INTELLECTUAL PROPERTY DEVELOPMENT LIMITED, priority 2017, published 2021).

What was measured:
IDO1 = IDO1 (Homo sapiens, UniProt P14902); assay: IDO1 HeLa RapidFire MS Assay; format: cell-based; set-up: stimulated with human interferon-γ (IFN-γ); conditions: HeLa cells stimulated with IFN-γ; kynurenine detected by mass spectrometry; 2 days; read-out: IDO1 HeLa pIC50 (converted)
Description: IDO1 HeLa RapidFire MS Assay
Compounds of the present invention were tested via high-throughput cellular assays utilizing detection of kynurenine via mass spectrometry and cytotoxicity as end-points. For the mass spectrometry and cytotoxicity assays, human epithelial HeLa cells (CCL-2; ATCC®, Manassas, Va.) were stimulated with human interferon-γ (IFN-γ) (Sigma-Aldrich Corporation, St. Louis, Mo.) to induce the expression of indoleamine 2, 3-dioxygenase (IDO1). Compounds with IDO1 inhibitory properties decreased the amount of kynurenine produced by the cells via the tryptophan catabolic pathway. Cellular toxicity due to the effect of compound treatment was measured using CellTiter-Glo® reagent (CTG) (Promega Corporation, Madison, Wis.), which is based on luminescent detection of ATP, an indicator of metabolically active cells. […]
Following incubation, the 384-well plates were removed from the incubator and allowed to equilibrate to room temperature for 30 minutes. […] After a twenty minute incubation at room temperature, luminescence was read on an EnVision® Multilabel Reader (PerkinElmer Inc., Waltham, Mass.). […]

PAN02 pancreatic cells = conditions: cited from earlier work
[1] = tested on: conversion of T cells into CD4+FoxP3+ Tregs; conditions: co-culture of DCs and naive CD4+CD25- T cells; cited from earlier work

Sequence of IDO1 (P14902 whole entry): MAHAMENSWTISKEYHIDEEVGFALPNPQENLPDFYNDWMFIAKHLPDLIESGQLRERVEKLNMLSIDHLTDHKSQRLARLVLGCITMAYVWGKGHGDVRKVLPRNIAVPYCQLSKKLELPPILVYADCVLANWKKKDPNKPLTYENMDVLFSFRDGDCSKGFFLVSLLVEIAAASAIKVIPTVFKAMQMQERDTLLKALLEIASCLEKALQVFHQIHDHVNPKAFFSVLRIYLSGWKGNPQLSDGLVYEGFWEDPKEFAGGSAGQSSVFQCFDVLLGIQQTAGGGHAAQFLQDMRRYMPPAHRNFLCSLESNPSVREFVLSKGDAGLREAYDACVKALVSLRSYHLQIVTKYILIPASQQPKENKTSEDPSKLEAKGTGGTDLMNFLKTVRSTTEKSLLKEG

| IC50 (IDO1) [nM] | Compound | inhibition of tumor growth (PAN02 pancreatic cells; PAN02 syngeneic model, immunocompetent mice, orally dosed) | effect on tumor growth (PAN02 pancreatic cells; same tumor implanted in immune-deficient mice) | conversion of T cells into CD4+FoxP3+ Tregs [1] |
| --- | --- | --- | --- | --- |
| 158 | CC(C)CN(c1ccc(C2(C(=O)O)CC2)nc1Nc1ccc(Cl)cn1)C1CCOCC1 [Example 15, 1-(6-((5-chloropyridin-2-yl)amino)-5-(isobutyl(tetrahydro-2H-pyran-4-yl)amino)pyridin-2-yl)cyclopropane-1-carboxylic acid] | – | – | – |
| 10 | CC(C)CN(c1ccc(C2(C(=O)NS(C)(=O)=O)CC2)nc1Nc1ccc(Cl)cn1)C1CCOCC1 [Example 16, 1-(6-((5-chloropyridin-2-yl)amino)-5-(isobutyl(tetrahydro-2H-pyran-4-yl)amino)pyridin-2-yl)-N-(methylsulfonyl)cyclopropane-1-carboxamide] | – | – | – |
| – | NS(=O)(=O)NCCNc1nonc1C(=NO)Nc1ccc(F)c(Br)c1 [INCB204360, epacadostat] | significant dose-dependent inhibition of tumor growth | without effect | blocked the conversion |
